Data taken from US11384078B2, “5,6-fused-bicyclic compounds and compositions for the treatment of parasitic diseases” (NOVARTIS AG, priority 2017, dated 2022).

Columns and labels:
Assay type in all cases: cell-based
[1] = tested on: L. donovani HU3 strain in mouse peritoneal macrophages; assay: Assay for inhibition of parasitemia of Leishmania donovani in mouse macrophages (SYBR Green nuclei count, high-content imaging); details: Leishmania donovani, Peritoneal macrophage, L. donovani in mouse peritoneal macrophages; read-out: L. donovani in Mouse Macrophages EC50
Outline: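 Peritoneal macrophages from uninfected BALB/c mice were infected for 24 h with spleen-derived L. donovani HU3 (4×10^5 parasites per 2×10^4 macrophages), then cultured with compound for 5 days at 37° C, 5% CO2. After fixation and permeabilization, parasite nuclei were stained with SYBR Green and counted by high-content imaging.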

[2] = tested on: Trypanosoma cruzi amastigotes cultured in 3T3 fibroblast cells; assay: Assay for growth inhibition of kinetoplastid parasite Trypanosoma cruzi (beta-galactosidase Tulahuen strain, CPRG readout); details: Trypanosoma cruzi, Fibroblast, T. cruzi amastigotes in 3T3 fibroblast cells; read-out: Buckner infectious T. cruzi EC50
Outline: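 3T3 fibroblasts (1,000 cells/well) plated overnight, treated with compound in DMSO, then infected with 10,000 Lac-Z-expressing Tulahuen trypomastigotes. After 6 days, 0.6 mM CPRG with 0.6% NP-40 added for 2 h at room temperature; absorbance gives relative intracellular amastigote numbers. Benznidazole and nifurtimox serve as positive controls.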

[3] = tested on: Leishmania donovani axenic amastigote; assay: In vitro assay for growth inhibition of Leishmania donovani axenic amastigote (Cell TiterGlo luminescence); details: Leishmania donovani, L. donovani axenic amastigotes in vitro; read-out: L. donovani amastigotes EC50
Outline: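 Axenic L. donovani amastigotes (9600/well) grown at 37 °C, 5% CO2 in supplemented RPMI 1640, pH 5.5, with compound added from DMSO. After two days, viability read by CellTiter-Glo luminescence against DMSO and control-compound wells.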

[4] = tested on: Trypanosoma brucei brucei (Lister 427) strain; assay: Assay for growth inhibition against Trypanosoma brucei brucei (Cell TiterGlo ATP luminescence); details: Trypanosoma brucei, T. brucei brucei (Lister 427); read-out: T. Brucei (HAT) EC50
Outline: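 T. b. brucei Lister 427 grown in HMI-9 with 10% FBS and 10% serum plus, seeded at 10,000 parasites/mL with 10-point threefold compound dilutions in duplicate, 37 °C for 2 days. Viability read as ATP luminescence 30 min after Cell TiterGlo; IC50 versus untreated controls.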

| Compound | EC50 [1] [nM] | EC50 [2] [nM] | EC50 [3] [nM] | EC50 [4] [nM] |
| --- | --- | --- | --- | --- |
| Cc1cc(C(=O)Nc2ccc(F)c(-n3cc4cc(C(C)C)cnc4n3)c2)c(C)o1 [Compound 72, N-{4-fluoro-3-[5-(propan-2-yl)-2H-pyrazolo[3,4-b]pyridin-2-yl]phenyl}-2,5-dimethylfuran-3-carboxamide] | 1400 | 180 | 2100 | 420 |
| Cc1ncoc1C(=O)Nc1ccc(F)c(-n2cc3cc(C(C)C)cnc3n2)c1 [Compound 73, N-{4-fluoro-3-[5-(propan-2-yl)-2H-pyrazolo[3,4-b]pyridin-2-yl]phenyl}-4-methyl-1,3-oxazole-5-carboxamide] | 220 | 57 | 100 | 37 |
| Cc1nc(C(=O)Nc2ccc(F)c(-n3cc4cc(C(C)C)cnc4n3)c2)c(C)o1 [Compound 74, N-{4-fluoro-3-[5-(propan-2-yl)-2H-pyrazolo[3,4-b]pyridin-2-yl]phenyl}-2,5-dimethyl-1,3-oxazole-4-carboxamide] | 820 | 57 | 760 | 110 |
| CC(C)c1cnc2nn(-c3cc(NC(=O)c4cnc(C5CC5)o4)ccc3F)cc2c1 [Compound 75, 2-cyclopropyl-N-{4-fluoro-3-[5-(propan-2-yl)-2H-pyrazolo[3,4-b]pyridin-2-yl]phenyl}-1,3-oxazole-5-carboxamide] | 170 | 120 | 200 | 170 |
| Cc1nc(C2CC2)oc1C(=O)Nc1ccc(F)c(-n2cc3cc(C(C)C)cnc3n2)c1 [Compound 76, 2-cyclopropyl-N-{4-fluoro-3-[5-(propan-2-yl)-2H-pyrazolo[3,4-b]pyridin-2-yl]phenyl}-4-methyl-1,3-oxazole-5-carboxamide] | 930 | 410 | 1100 | 480 |
| Cc1nc(C(F)(F)F)oc1C(=O)Nc1ccc(F)c(-n2cc3cc(C(C)C)cnc3n2)c1 [Compound 78, N{4-fluoro-3-[5-(propan-2-yl)-2H-pyrazolo[3,4-b]pyridin-2-yl]phenyl}-4-methyl-2-(trifluoromethyl)-1,3-oxazole-5-carboxamide] | 870 | 450 | 800 | 530 |
| Cc1nc(COC(C)(C)C)oc1C(=O)Nc1ccc(F)c(-n2cc3cc(C(C)C)cnc3n2)c1 [Compound 79, 2-[(tert-butoxy)methyl]-N-{4-fluoro-3-[5-(propan-2-yl)-2H-pyrazolo[3,4-b]pyridin-2-yl]phenyl}-4-methyl-1,3-oxazole-5-carboxamide] | 2400 | 140 | 3000 | 350 |
| CC(C)c1cnc2nn(-c3cc(NC(=O)C4CCCCO4)ccc3F)cc2c1 (stereo not shown) [Compound 80, N-{4-fluoro-3-[5-(propan-2-yl)-2H-pyrazolo[3,4-b]pyridin-2-yl]phenyl}oxane-2-carboxamide] | 410 | 92 | 410 | 170 |
| Cc1nc(C(=O)Nc2ccc(F)c(-n3cc4cc(C(C)C)cnc4n3)c2)oc1C [Compound 81, N-{4-fluoro-3-[5-(propan-2-yl)-2H-pyrazolo[3,4-b]pyridin-2-yl]phenyl}-4,5-dimethyl-1,3-oxazole-2-carboxamide] | 3600 | 420 | 3160 | 360 |
| CC(C)c1cnc2nn(-c3cc(NC(=O)c4ccccn4)ccc3F)cc2c1 [Compound 82, N-{4-fluoro-3-[5-(propan-2-yl)-2H-pyrazolo[3,4-b]pyridin-2-yl]phenyl}pyridine-2-carboxamide] | 310 | 59 | 470 | 54 |
| Cc1ncc(C(=O)Nc2ccc(F)c(-n3cc4cc(C(C)C)cnc4n3)c2)o1 [Compound 83, N-{4-fluoro-3-[5-(propan-2-yl)-2H-pyrazolo[3,4-b]pyridin-2-yl]phenyl}-2-methyl-1,3-oxazole-5-carboxamide] | 7 | 7.3 | 14 | < 23 |
| CC(C)c1cnc2nn(-c3cc(NC(=O)c4ccc(C#N)cn4)ccc3F)cc2c1 [Compound 84, 5-cyano-N-{4-fluoro-3-[5-(propan-2-yl)-2H-pyrazolo[3,4-b]pyridin-2-yl]phenyl}pyridine-2-carboxamide] | 6900 | 3700 | 2400 | 2030 |
| Cc1nc(C(=O)Nc2ccc(F)c(-n3cc4cc(C(C)C)cnc4n3)c2)co1 [Compound 85, N-{4-fluoro-3-[5-(propan-2-yl)-2H-pyrazolo[3,4-b]pyridin-2-yl]phenyl}-2-methyl-1,3-oxazole-4-carboxamide] | 750 | 150 | 1200 | 180 |
| CC(C)c1cnc2nn(-c3cc(NC(=O)c4nc(Cl)ccc4F)ccc3F)cc2c1 [Compound 86, 6-chloro-3-fluoro-N-{4-fluoro-3-[5-(propan-2-yl)-2H-pyrazolo[3,4-b]pyridin-2-yl]phenyl}pyridine-2-carboxamide] | 120 | 14 | 130 | < 23 |
| CC(C)c1cnc2nn(-c3cc(NC(=O)c4cnccn4)ccc3F)cc2c1 [Compound 87, N-(4-fluoro-3-(5-isopropyl-2H-pyrazolo[3,4-b]pyridin-2-yl)phenyl)pyrazine-2-carboxamide] | 71 | 16 | 62 | < 23 |
| CC(C)c1cnc2nn(-c3cc(NC(=O)C4CCCO4)ccc3F)cc2c1 (stereo not shown) [Compound 88, N-{4-fluoro-3-[5-(propan-2-yl)-2H-pyrazolo[3,4-b]pyridin-2-yl]phenyl}oxolane-2-carboxamide] | 3200 | 1800 | 5300 | 1500 |
| CC(C)c1cnc2nn(-c3cc(NC(=O)c4cc(Cl)ccc4F)ccc3F)cc2c1 [Compound 89, 5-chloro-2-fluoro-N-{4-fluoro-3-[5-(propan-2-yl)-2H-pyrazolo[3,4-b]pyridin-2-yl]phenyl}benzamide] | 270 | 32 | 470 | 33 |
| CC(C)c1cnc2nn(-c3cc(NC(=O)C4CC4)ccc3F)cc2c1 [Compound 90, N-{4-fluoro-3-[5-(propan-2-yl)-2H-pyrazolo[3,4-b]pyridin-2-yl]phenyl}cyclopropanecarboxamide] | 310 | 140 | 280 | 77 |
| O=C(Nc1ccc(F)c(-n2cc3cc(C4CC4)cnc3n2)c1)N1CCC1 [Compound 91, N-(3-{5-cyclopropyl-2H-pyrazolo[3,4-b]pyridin-2-yl}-4-fluorophenyl)azetidine-1-carboxamide] | 8.6 | 4.1 | 8.7 | < 23 |
| O=C(Nc1ccc(F)c(-n2cc3cc(C4CCC4)cnc3n2)c1)N1CCC1 [Compound 93, N-(3-{5-cyclobutyl-2H-pyrazolo[3,4-b]pyridin-2-yl}-4-fluorophenyl)azetidine-1-carboxamide] | 32 | 7 | 34 | < 23 |
| CC(C)(C)Cc1cnc2nn(-c3cc(NC(=O)N4CCC4)ccc3F)cc2c1 [Compound 94, N-{3-[5-(2,2-dimethylpropyl)-2H-pyrazolo[3,4-b]pyridin-2-yl]-4-fluorophenyl}azetidine-1-carboxamide] | 8.1 | 1.8 | 12 | < 23 |
| CCCC(C)c1cnc2nn(-c3cc(NC(=O)N4CCC4)ccc3F)cc2c1 (stereo not shown) [Compound 95, N-{4-fluoro-3-[5-(pentan-2-yl)-2H-pyrazolo[3,4-b]pyridin-2-yl]phenyl}azetidine-1-carboxamide] | 350 | 170 | 420 | 85 |
| CCC(C)c1cnc2nn(-c3cc(NC(=O)N4CCC4)ccc3F)cc2c1 (stereo not shown) [Compound 96, N-{3-[5-(butan-2-yl)-2H-pyrazolo[3,4-b]pyridin-2-yl]-4-fluorophenyl}azetidine-1-carboxamide] | 21 | 18 | 23 | < 23 |
| O=C(Nc1ccc(F)c(-n2cc3cc(CC4CCC4)cnc3n2)c1)N1CCC1 [Compound 97, N-{3-[5-(cyclobutylmethyl)-2H-pyrazolo[3,4-b]pyridin-2-yl]-4-fluorophenyl}azetidine-1-carboxamide] | 440 | 8.8 | 12 | < 23 |
| CC(C)CCc1cnc2nn(-c3cc(NC(=O)N4CCC4)ccc3F)cc2c1 [Compound 98, N-{4-fluoro-3-[5-(3-methylbutyl)-2H-pyrazolo[3,4-b]pyridin-2-yl]phenyl}azetidine-1-carboxamide] | 23 | 15 | 25 | < 23 |
